In patent US10513512B2, “Flavanone derivatives, and preparation method and use thereof” (Xuanwu Hospital of Capital Medical University, priority 2016, dated 2019):
pIC50: −log10 of the molar value.

How the values were obtained:
[1] = target: dopamine D2 receptor (DRD2) (Homo sapiens (Human), UniProt P14416); assay: Dopamine D2 receptor antagonism, Fluo-4 calcium fluorescence in HEK293 cells stably expressing DRD2/Gα16; format: cell-based; settings: 50 nM Dopamine as agonist, read-out: IC50 for inhibiting dopamine D2 receptor
Sequence of dopamine D2 receptor (DRD2) (P14416 whole entry): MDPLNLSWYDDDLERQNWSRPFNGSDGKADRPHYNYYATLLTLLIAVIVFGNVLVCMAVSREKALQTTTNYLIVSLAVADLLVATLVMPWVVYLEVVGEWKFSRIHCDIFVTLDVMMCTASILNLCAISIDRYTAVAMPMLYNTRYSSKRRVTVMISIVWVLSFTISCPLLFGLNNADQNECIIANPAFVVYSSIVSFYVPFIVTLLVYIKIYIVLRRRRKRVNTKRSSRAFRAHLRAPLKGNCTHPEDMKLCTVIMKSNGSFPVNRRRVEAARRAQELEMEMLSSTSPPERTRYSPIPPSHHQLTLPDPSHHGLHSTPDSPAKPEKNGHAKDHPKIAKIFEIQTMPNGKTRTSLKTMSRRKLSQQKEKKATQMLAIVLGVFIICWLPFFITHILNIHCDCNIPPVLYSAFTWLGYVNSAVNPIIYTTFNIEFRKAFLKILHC
Excerpt: Objective: positive symptoms (hallucination, delusion, etc.) in patients with schizophrenia may be associated with dopamine (DA) hyperfunction in subcortical limbic system, and antipsychotic drugs, which block Dopamine D2 Receptor (DRD2), can effectively control positive symptoms of schizophrenia. By establishing a cell line co-transfected with DRD2 and Gα16, the activated DRD2 can activate Gα16 protein, thereby activating phospholipase C (PLC) to produce inositol 1,4,5-triphosphate (IP3) and diacylglycerol (DAG), wherein IP3 can bind to the IP3 receptor on endoplasmic reticulum and mitochondria, resulting in intracellular calcium release. Therefore, the determination of a change in intracellular calcium can be used as a method for detecting the activated state of DRD2.
Fluo-4/AM was a calcium fluorescent probe indicator for determining calcium ions. In this experiment, a Fluo-4 fluorescence method was used to determine the level of activated Gα protein by measuring the fluorescence intensity excited by intracellular calcium ions. If a compound could activate DRD2, the calcium influx was enhanced; on the contrary, if a compound could antagonize DRD2, the calcium influx was reduced.
Methods: HEK293 cells stably expressing DRD2/Gα16 (a human embryonic kidney cell line, derived from Shanghai Institute of Materia Medica, Chinese Academy of Sciences) were seeded in a 96-well plate (the culture solution was 90% DMEM+10% fetal bovine serum), and incubated overnight. The culture solution was pipetted off, and a freshly prepared dye Fluo-4/AM was added. The cells were incubated in a 37° C. incubator for 40 min. The dye was completely pipetted off. After the cells were washed with a freshly prepared calcium buffer, a calcium buffer (50 μl) dissolved with a test drug was added. FlexStation II instrument was used in the determination. A calcium buffer (25 μl) dissolved with a known agonist was added automatically by the instrument at the fifteenth second, and the fluorescence value at 525 nm (an excitation wavelength of 485 nm) was finally read. […] IC50 value was calculated by GraphPad Prism.

[2] = tested on: MK-801-induced hyperlocomotion schizophrenia model in mice; assay: MK-801-induced hyperlocomotion schizophrenia model in mice (open-field test); format: in vivo, mouse; settings: within 210 min; for Distance of central district activity / Total distance traveled: 50 mg/kg intragastric, Balb/c mice, MK-801 0.6 mg/kg i.p., Mean ± SE, n = 10; for distance of center square activity, effect in words / total distance of spontaneous activity, effect in words: intragastrical administration, MK-801 model mice
Excerpt: Objective: Glutamatergic hypofunction is one of the pathogenesis for mental disorders such as schizophrenia. N-methyl-D-aspartic acid (NMDA) receptor antagonists can induce schizophrenia-like effects. In this experiment, a hyperlocomotion schizophrenia model in mice induced by dizocilpine (MK-801), a NMDA receptor antagonist, was used to investigate the in vivo activity of the compounds P6, P5, P4 and P7 of the invention.
Methods: SPF grade inbred Balb/c male mice with no special pathogens (purchased from Laboratory Animal Center of Capital Medical University), weighed (20±2) g, were randomly divided into a control group, a model group, and drug groups. The mice were adapted to the rearing environment for one week, and then were intragastrically administered for 3 days, wherein the control group and model group were intragastrically administered with physiological saline, and on Day 4, the mice were administered prior to test, and then were tested for 60 min in an Open-Field Activity Monitoring System. The control group was then intraperitoneally injected with physiological saline, the model group and the drug groups were intraperitoneally injected with a solution (0.6 mg/kg) of a NMDA receptor antagonist dizocilpine (MK-801), and the mice of these groups were further monitored for spontaneous activity and center square activity within 210 minutes, wherein spontaneous activity was used to reflect the positive symptom of rapid motion in schizophrenia, and center square activity was used to evaluate the anxiety status of schizophrenia.

[3] = tested on: myelin basic protein (MBP) in the frontal cortex of Cuprizone model mice; assay: Demyelination in Cuprizone mouse model: MBP content by Western blot; format: in vivo; settings: 25 and 50 mg/kg groups, FIG. 9
Excerpt: Objectiv: pathological changes in white matter and demyelination are the important pathogenesis for many central nervous system diseases and mental disorders. Cuprizone can cause demyelination and pathological changes in white matter. Myelin basic protein (MBP) is a marker protein for myelination of axons, and is the main component of myelin sheath. In this experiment, Western Blot method was used to study the effects of the compounds of the invention on the MBP content and demyelination in the brain of Cuprizone model mice. Methods: Cuprizone mouse model establishment and administration method were the same as those described in Experimental example 4. After ethological tests were performed, the mice were anaesthetized by intraperitoneal injection of 10% chloral hydrate. The brains were harvested and stored at −80° C. Western blot assay: brain tissue was lysed with lysate to extract protein, and the protein concentration was determined. SDS-PAGE gel electrophoresis was performed, the protein was transferred onto a membrane, and the membrane was blocked. The protein was incubated with an anti-MBP antibody (a primary antibody) overnight at 4° C. in a refrigerator. […] Signal intensity for each protein band was analyzed using FluorChem 8900 gray-scale analysis software.

[4] = tested on: Cuprizone model mice; assay: Ethological change in Cuprizone model mice (Y-maze and open-field behavior test); format: in vivo, mouse; settings: intragastrical administration; for number of arm entries in Y-maze, effect in words / spontaneous alternation in Y-maze, effect in words: within 8 min; for number of arm entries in Y-maze, effect in words: FIG. 6; for spontaneous alternation in Y-maze, effect in words: FIG. 7; for total distance of spontaneous activity in open-field test, effect in words: within 10 min, FIG. 8
Excerpt: Objective: neuroinflammation, pathological changes in white matter, and demyelination are the important pathogenesis for many central nervous system diseases. Cuprizone (dicyclohexanoneoxaly dihydrazone) can cause changes such as inflammation, demyelination, axonal injury, and cognitive function impairment. In this experiment, Y-maze and open-field behavior test were used to study the effects of the compounds of the invention on memory function and motion in a Cuprizone mouse model.
Methods: SPF grade inbred C57BL/6 male mice, weighed (20±2) g, were randomly divided into a control group, a model group, and drug groups. The mice were adapted to the rearing environment for 3 days. Then, the control group was fed with a normal feed, and the other groups were fed with a feed containing 0.2% Cuprizone for model establishment. During model establishment, the mice in each group were intragastrically administered with a corresponding dose of drug, and were reared for 5 weeks. The mice were then subjected to the Y-maze and open field behavior test, wherein the number of arm entries in Y-maze was used to reflect the motion of mice; the spontaneous alternation in Y maze was used to reflect the working memory of mice; and the spontaneous activity in open-field behavior test was used to reflect the motion of mice.

[5] = tested on: Iba-1-labeled microglial cells in the brain of Cuprizone model mice; assay: Microglial cell activation in Cuprizone mouse model: Iba-1 immunohistochemical staining; format: in vivo; settings: 25, 50 mg/kg, FIG. 10
Excerpt: Objective: microglial activation and neuroinflammation are the important pathogenesis for many central nervous system diseases. Iba-1 could specifically label microglial cells. In this experiment, immunohistochemical method was used to study the effects of the compounds of the invention on Iba-1-labeled microglial cells in the brain of Cuprizone model mice.
Methods: Cuprizone mouse model establishment and administration method were the same as those described in Experimental example 4. After ethological tests were performed, the mice were anaesthetized by intraperitoneal injection of 10% chloral hydrate. After perfusion, brain tissue was taken and fixed with […] paraformaldehyde, and then frozen and sliced. Immunohistochemical staining: the frozen sections were inactivated with 3% H2O2 for 10 min and rinsed with PBS; the tissues were blocked with 10% serum and incubated at 37° C. for 1 h. Serum was washed off and a primary antibody (an anti-Iba-1 antibody) was added dropwise. The resultant mixture was kept at 4° C. overnight. After rinsing with PBST, a biotin-conjugated goat anti-rabbit IgG antibody (a secondary antibody) was added dropwise, and incubated at 37° C. for 2 hrs. After rinsing with PBST, a horseradish peroxidase-conjugated streptavidin (a third antibody) was added dropwise, and incubated at 37° C. for 2 hrs. […] Iba-1 positive cells were observed under microscope, and counted.

Structure (SMILES)	pIC50 [1]	Distance of central district activity [2]	Total distance traveled [2]	MBP content in frontal cortex, effect in words [3]	number of arm entries in Y-maze, effect in words [4]	spontaneous alternation in Y-maze, effect in words [4]	total distance of spontaneous activity in open-field test, effect in words [4]	distance of center square activity, effect in words [2]	total distance of spontaneous activity, effect in words [2]	number of Iba-1-labeled microglial cells in the brain, effect in words [5]
COc1ccc(C2CC(=O)c3c(O)cc(OCCCCN4CCN(c5ccccc5OC)CC4)cc3O2)cc1 (stereo not drawn) [Compound P1, 5-hydroxy-2-(4-methoxyphenyl)-7-(4-(4-(2-methoxyphenyl)-piperazin-1-yl)-butoxy)-chroman-4-one]	6.69	–	–	–	–	–	–	–	–	–
COc1ccccc1N1CCN(CCCCOc2cc(O)c3c(c2)OC(c2ccc(C)cc2)CC3=O)CC1 (stereo not drawn) [Compound P2, 5-hydroxy-2-(4-methylphenyl)-7-(4-(4-(2-methoxyphenyl)-piperazin-1-yl)-butoxy)-chroman-4-one]	6.46	–	–	–	–	–	–	–	–	–
COc1ccccc1N1CCN(CCCCOc2cc(O)c3c(c2)OC(c2ccc(F)cc2)CC3=O)CC1 (stereo not drawn) [Compound P3, 5-hydroxy-2-(4-fluorophenyl)-7-(4-(4-(2-methoxyphenyl)-piperazin-1-yl)-butoxy)-chroman-4-one]	7.24	–	–	–	–	–	–	–	–	–
O=C1CC(c2ccc(F)cc2)Oc2cc(OCCCCN3CCC(c4noc5cc(F)ccc45)CC3)cc(O)c21 (stereo not drawn) [Compound P4, 5-hydroxy-2-(4-fluorophenyl)-7-(4-(4-(6-fluoro-benzo[d]isoxazol-3-yl)-piperidin-1-yI)-butoxy)-chroman-4-one]	7.06	11098 ± 1422 cm	39222 ± 4300 cm	could significantly enhance the MBP content	–	–	–	–	–	–
COc1ccc(C2CC(=O)c3c(O)cc(OCCCCN4CCC(c5noc6cc(F)ccc56)CC4)cc3O2)cc1 (stereo not drawn) [Compound P5, 5-hydroxy-2-(4-methoxyphenyl)-7-(4-(4-(6-fluoro-benzo[d]isoxazol-3-yl)-piperidin-1-yl)-butoxy)-chroman-4-one]	7.29	9211 ± 1845 cm	30914 ± 3351 cm	could significantly enhance the MBP content	could reduce the number of arm entries	enhance the spontaneous alternation	could shorten the total distance of spontaneous activity	could shorten the total distance of spontaneous activity and the distance of center square activity	could shorten the total distance of spontaneous activity	–
COc1ccc(C2CC(=O)c3c(O)cc(OCCCN4CCN(c5ccccc5OC)CC4)cc3O2)cc1 (stereo not drawn) [Compound P6, 5-hydroxy-2-(4-methoxyphenyl)-7-(4-(4-(2-methoxyphenyl)-piperazin-1-yl)-propoxy)-chroman-4-one]	6.66	10181 ± 2110 cm	46922 ± 2233 cm	–	could reduce the number of arm entries	enhance the spontaneous alternation	could shorten the total distance of spontaneous activity	could shorten the total distance of spontaneous activity and the distance of center square activity	could shorten the total distance of spontaneous activity	could significantly reduce the number of microglial cells
COc1ccc(C2CC(=O)c3c(O)cc(OCCCN4CCC(c5noc6cc(F)ccc56)CC4)cc3O2)cc1 (stereo not drawn) [Compound P7, 5-hydroxy-2-(4-methoxyphenyl)-7-(4-(4-(6-fluoro-benzo[d]isoxazol-3-yl)-piperidin-1-yl)-propoxy)-chroman-4-one]	6.94	7913 ± 1666 cm	37051 ± 4308 cm	–	–	–	–	could shorten the total distance of spontaneous activity and the distance of center square activity	could shorten the total distance of spontaneous activity	–
